The target of one data set is T1, NaV1.7 (Homo sapiens, UniProt Q15858).
T1 construct: expressed in transfected cells; host or cells: HEK293, tetracycline-inducible
Kind of data set: Automated patch clamp (Qube 384), internal block of NaV1.7 in HEK293 cells. It is filed as cell-based. Particulars: compound in internal solution, read-out: NaV1.7 Intracellular Inhibition. The protocol:
NaV1.7 was expressed in HEK293 cells upon induction with tetracycline. Cells were cultured in DMEM containing 10% dialyzed Fetal Bovine Serum (VWR, Radnor, Pa.), 1% Glutamax (VWR, Radnor, Pa.), 1% Penicillin-Streptomycin (VWR, Radnor, Pa.), 100 mg/L Hygromycin (Thermo Fisher Scientific, Waltham, Mass. and 5 mg/L Blasticidin (Alfa Aesar, Haverhill, Mass.). Cells were grown and maintained at 37° C. in a humidified environment containing 10% CO2 in air. Cells were detached from the culture flask for passage and harvested using 0.05% Trypsin-EDTA (Thermo Fisher Scientific, Waltham, Mass.). To induce NaV1.7, cells were induced with tetracycline (0.1-1 μg/mL, IBI Scientific, Peosta, Iowa) the day before recording.
Before experiments, cells were washed with DPBS (VWR, Radnor, Pa.), digested with Detachin (VWR Radnor, Pa.) and then triturated 10 times in CHO Serum-Free Media (VWR Radnor, Pa.) to resuspend the cells and to break apart cell aggregates. Cells were counted and the final concentration was set at 2-5 million cells per mL.
The intracellular solution contained the following: 140 mM CsF, 1 mM/5 mM EGTA/CsOH, 10 mM HEPES, 10 mM NaCl, adjusted to pH 7.3 with CsOH, and osmolality to 320 with sucrose. The external solution contained the following: 145 mM NaCl, 4 mM KCl, 1 mM MgCl2, 2 mM CaCl2, 10 mM HEPES, 10 mM Glucose, adjusted to pH 7.4 with CsOH and osmolality to 305 with sucrose. All chemicals are from Sigma-Aldrich, St. Louis, Mo. In order to test the degree of internal block by test compounds, the compounds were dissolved in internal solution at the indicated test concentration. […] In order to test the degree of external block by test compounds the compounds were dissolved in external solution at the indicated test concentration.
Automated Patch Clamps were performed on Qube 384 (Sophion Bioscience, Woburn Mass.) with multihole Qchips at a temperature setting of 22 degrees. The whole cells configuration was formed with default Qube seal and break-in parameter. The membrane potential was held at −100 mV before the voltage protocol began. Two voltage protocols were followed.
Step 1: Cells were held at −100 mV with a depolarized pulse to −20 mV for 10 ms, the interval was set at 5 s. Currents were corrected by default leak subtraction from every pulse. The duration was set at 5 mins.
Step 2: Cells were held at −100 mV with a depolarized pulse to −20 mV for 10 ms. The frequency was 5 Hz. Currents were corrected by leak subtraction calculated before step 2. The duration was set at 4 mins.
After Step 2, the Qchip was removed from the recording chamber. The internal solution was changed with solutions containing test compounds. Qchips were held at −100 mV without pulsing after being replaced in the recording chamber. The total solution switching time was 8 minutes. After the internal solution exchange, Cells were recorded and step 2 for repeated for 10 minutes.
Data analysis was performed by Sophion Analyzer. Cells were filtered with minimum 50 MOhm seal resistance and minimum 5 nA starting current. The rundown of the currents was corrected with control cells (Non-Drug). The remaining was calculated by averaging last 3 points in the end of experiments. The base line was calculated as the average of last 3 points of Step 2. IC50 curves were plotted with DR-plots/Hill function (a dose-response plot with a Hill fit).
Representative examples of the invention were tested for intracellular inhibition of NaV 1.7 in the automated patch clamp assay. Activity Range is reported as IC50: “++++” (<1 μM), “+++” (1-3 μM), “++” (3-10 μM) or “+” (10-30 μM).

Data set [1] can be described thus: PAMPA membrane permeability assay. It is filed as physicochemical. Particulars: pH 7.4 buffer, GIT lipid, 4 hours incubation. The procedure: The PAMPA assay (pION, Inc., Woburn Mass.) was used to determine the ability of compounds of the invention to cross an artificial lipid membrane by passive diffusion. Test compounds were dissolved in DMSO (10 mM) and diluted 200-fold in buffer (pION Inc., pH 7.4) to provide 50 uM stock solutions. Buffer (150 μL) was added to a UV blank plate and stock solutions (150 μL) were transferred to a UV reference plate. The blank and reference spectrum were read using a spectrophotometer. Stock solutions (200 μL) were added to the donor plate of the PAMPA sandwich plate and an accept plate painted with GIT lipid (pION Inc, 5 μL) was placed on top. Buffer (200 μL) was added to the acceptor plate and the PAMPA sandwich plate was incubated for 4 hours. Aliquots (150 μL) from the acceptor plate were added to a UV plate and read as acceptor spectrum. Aliquots (150 μL) of the donor solutions were added to a UV analysis plate and read as donor spectrum. The permeability coefficient of test compounds was calculated using PAMPA Explorer™ software (version 3.5.0.4) based on the AUC of the reference plate, the donor plate, and the acceptor plate.
The PAMPA permeability results (10^−6 cm/s) of representative compounds are reported as “+” (<0.1 10^−6 cm/s), “++” (0.1-2.0 10^−6 cm/s), “+++” (2.0-10.010^−6 cm/s) or “++++” (>10.0 10^−6 cm/s).

The structures appear in SMILES notation.

T1 sequence (Q15858 whole entry): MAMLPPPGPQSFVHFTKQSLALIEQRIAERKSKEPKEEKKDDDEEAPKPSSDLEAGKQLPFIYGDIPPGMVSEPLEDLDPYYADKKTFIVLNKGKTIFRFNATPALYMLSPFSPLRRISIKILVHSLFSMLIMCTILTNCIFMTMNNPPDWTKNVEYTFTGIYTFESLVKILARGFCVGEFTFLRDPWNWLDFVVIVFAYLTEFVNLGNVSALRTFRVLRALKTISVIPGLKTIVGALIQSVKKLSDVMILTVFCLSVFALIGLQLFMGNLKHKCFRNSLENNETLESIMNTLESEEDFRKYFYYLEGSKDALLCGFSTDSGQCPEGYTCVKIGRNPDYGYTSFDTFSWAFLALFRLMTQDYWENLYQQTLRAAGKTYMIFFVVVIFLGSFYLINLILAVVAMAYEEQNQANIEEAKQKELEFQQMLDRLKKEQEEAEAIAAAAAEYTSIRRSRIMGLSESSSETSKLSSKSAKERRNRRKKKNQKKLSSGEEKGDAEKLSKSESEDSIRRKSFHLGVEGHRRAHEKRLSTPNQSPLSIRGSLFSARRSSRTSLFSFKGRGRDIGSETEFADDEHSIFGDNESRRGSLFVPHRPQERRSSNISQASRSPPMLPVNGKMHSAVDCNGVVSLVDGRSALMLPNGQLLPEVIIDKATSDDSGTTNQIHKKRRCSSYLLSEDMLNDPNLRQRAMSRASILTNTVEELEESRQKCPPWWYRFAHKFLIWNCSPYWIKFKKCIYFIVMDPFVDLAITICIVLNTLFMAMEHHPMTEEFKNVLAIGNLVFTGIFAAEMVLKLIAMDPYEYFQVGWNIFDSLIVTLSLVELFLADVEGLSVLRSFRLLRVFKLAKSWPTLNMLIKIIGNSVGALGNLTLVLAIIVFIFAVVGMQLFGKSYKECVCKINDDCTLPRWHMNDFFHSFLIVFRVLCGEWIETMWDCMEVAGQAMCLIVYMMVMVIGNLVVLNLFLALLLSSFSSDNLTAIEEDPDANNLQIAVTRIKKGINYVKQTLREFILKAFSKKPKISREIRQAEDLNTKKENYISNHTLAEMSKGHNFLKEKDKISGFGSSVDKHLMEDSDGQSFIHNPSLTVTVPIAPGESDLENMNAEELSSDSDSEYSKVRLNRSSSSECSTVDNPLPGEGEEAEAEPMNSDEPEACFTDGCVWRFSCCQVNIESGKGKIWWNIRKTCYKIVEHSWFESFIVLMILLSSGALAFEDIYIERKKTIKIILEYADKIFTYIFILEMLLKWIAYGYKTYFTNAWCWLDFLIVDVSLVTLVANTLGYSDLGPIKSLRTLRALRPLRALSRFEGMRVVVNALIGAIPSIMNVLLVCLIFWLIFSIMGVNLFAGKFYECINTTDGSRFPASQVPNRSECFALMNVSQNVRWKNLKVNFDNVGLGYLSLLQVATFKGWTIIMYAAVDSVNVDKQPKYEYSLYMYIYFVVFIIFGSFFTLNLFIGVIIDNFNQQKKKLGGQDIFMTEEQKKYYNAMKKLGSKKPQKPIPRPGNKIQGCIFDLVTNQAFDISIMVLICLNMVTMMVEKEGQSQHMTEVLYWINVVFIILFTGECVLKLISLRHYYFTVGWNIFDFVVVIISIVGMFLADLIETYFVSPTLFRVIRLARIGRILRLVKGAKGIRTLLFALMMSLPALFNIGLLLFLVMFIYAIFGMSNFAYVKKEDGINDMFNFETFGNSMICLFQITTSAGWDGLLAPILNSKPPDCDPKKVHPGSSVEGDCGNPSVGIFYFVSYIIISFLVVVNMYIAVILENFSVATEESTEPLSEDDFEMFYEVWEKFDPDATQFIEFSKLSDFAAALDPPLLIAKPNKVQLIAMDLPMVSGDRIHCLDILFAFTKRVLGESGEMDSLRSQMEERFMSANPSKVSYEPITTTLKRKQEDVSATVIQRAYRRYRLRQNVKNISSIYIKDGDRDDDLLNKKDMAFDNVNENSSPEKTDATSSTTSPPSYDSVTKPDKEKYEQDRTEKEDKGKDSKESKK

`CCN(CC)C(=O)C1CCC[N+](CC)(CC(=O)Nc2c(C)cccc2C(=O)OC)C1.[I-]` (stereo not shown) [Compound 53]: the IC50 at NaV1.7 lay in the range of 1000 to 3000 nM. For the same compound, in data set [1], the “PAMPA (10^−6 cm/s)” value is reported as “+ (<0.1 10^−6 cm/s)”.
The matching figures for `CC[N+]1(CC(=O)Nc2c(C)cccc2C(=O)OC)CCCC(C(=O)NCC(C)C)C1.[I-]` (stereo not shown) [Compound 48]: 1000 to 3000 nM and “+ (<0.1 10^−6 cm/s)”.
As for `COC(=O)c1cccc(C)c1NC(=O)C[N+]1(Cc2ccccc2)CCCC(C(=O)OC(C)C)C1` (stereo not shown) [Compound 19], the IC50 on NaV1.7 was less than 1000 nM.
With `COC(=O)c1cccc(C)c1NC(=O)C[N+]1(Cc2ccccc2)CCCC(C(=O)N2CCCCC2)C1` (mixture of isomers) [Compound 37], the IC50 at NaV1.7 was in the range of 1000 to 3000 nM. Further, the “PAMPA (10^−6 cm/s)” value in data set [1] is listed as “+ (<0.1 10^−6 cm/s)”.
For `CCCOC(=O)C1CCC[N+](CC(=O)Nc2c(C)cccc2C(=O)OC)(Cc2ccccc2)C1` (mixture of isomers) [Compound 18], in that order: 1000 to 3000 nM and “+ (<0.1 10^−6 cm/s)”.
The matching figures for `CC[N+]1(CC(=O)Nc2c(C)cccc2C(=O)OC)CCCC(C(=O)N2CCCCCC2)C1` (mixture of isomers) [Compound 51]: 1000 to 3000 nM and “+ (<0.1 10^−6 cm/s)”.
The matching figures for `COC(=O)c1cccc(C)c1NC(=O)C[N+]1(Cc2ccccc2)CCCC(C(=O)OC2CCCC2)C1.[Br-]` (stereo not shown) [Compound 21]: 3000 to 10000 nM and “+ (<0.1 10^−6 cm/s)”.
Regarding `CCCN(CCC)C(=O)C1CCC[N+](CC)(CC(=O)Nc2c(C)cccc2C(=O)OC)C1` (mixture of isomers) [Compound 47], the “PAMPA (10^−6 cm/s)” value in data set [1] is “+ (<0.1 10^−6 cm/s)”.
With `COC(=O)c1cccc(C)c1NC(=O)C[N+]1(Cc2ccccc2)CCCC(C(=O)OC2CCCCC2)C1` (mixture of isomers) [Compound 17], the IC50 on NaV1.7 is 3000 to 10000 nM. In addition, in data set [1], the “PAMPA (10^−6 cm/s)” value is “+++ (2.0-10.010^−6 cm/s)”.
The matching figures for `COC(=O)c1cccc(C)c1NC(=O)C[N+]1(Cc2ccccc2)CCCC(C(=O)NC2CCCCC2)C1` (mixture of isomers) [Compound 42]: 1000 to 3000 nM and “+ (<0.1 10^−6 cm/s)”.
The matching figures for `CC[N+]1(CC(=O)Nc2c(C)cccc2C(=O)OC)CCCC(C(=O)NC2CCCC2)C1` (mixture of isomers) [Compound 52]: 1000 to 3000 nM and “+ (<0.1 10^−6 cm/s)”.
As for `CC[N+]1(CC(=O)Nc2c(C)cccc2C(=O)OC)CCCC(C(=O)OC2CCCC2)C1.[I-]` (stereo not shown) [Compound 22], the IC50 on NaV1.7 lay in the range of 1000 to 3000 nM. The “PAMPA (10^−6 cm/s)” value in data set [1] is listed as “+ (<0.1 10^−6 cm/s)”.
For `COC(=O)c1cccc(C)c1NC(=O)C[N+]1(Cc2ccccc2)CCCC(C(=O)OCC(C)C)C1` (mixture of isomers) [Compound 20], in that order: 1000 to 3000 nM and “+ (<0.1 10^−6 cm/s)”.
For `CC[N+]1(CC(=O)Nc2c(C)cccc2C(=O)OC)CCCC(C(=O)NC(C)C)C1.[I-]` (stereo not shown) [Compound 50], in that order: 1000 to 3000 nM and “+ (<0.1 10^−6 cm/s)”.
In the case of `CCOC(=O)c1cccc(C)c1NC(=O)C[n+]1cccc(C(=O)OC2CCCC2)c1.[Br-]` [Compound 68], the IC50 at NaV1.7 is 3000 to 10000 nM. Besides, in data set [1], the “PAMPA (10^−6 cm/s)” value was “+++ (2.0-10.010^−6 cm/s)”.

The record behind these values is patent US10927096B2, “Ester substituted ion channel blockers and methods for use” (Nocion Therapeutics, Inc., priority 2019, dated 2021).
